Experiments:
[1] = target: T1, ALK-wt (Homo sapiens, UniProt Q9UM73); test: Biochemical kinase assay, ALK-wt kinase domain; details: apparent inhibitory constant, Morrison equation; ATP 2 mM in substrate solution; read-out: ALK-wt Ki^app
T1 construct: purchased Carna 08-518
Procedure: (§1) First, 250 nL of compound dissolved in DMSO (100-fold of the desired concentration) was dispensed into a 384-well plate. A 12.5 μL substrate solution containing ATP (2 mM) and fluorogenic phosphorylation substrate AQT0101 (26 μM for ALK and ROS1, AssayQuant) or AQT0104 (26 μM for TRKA, AssayQuant) in buffer (50 mM HEPES pH 7.5, 0.01% Brij-35, 0.5 mM EGTA, 10 mM MgCl2) was added and mixed thoroughly. Then, a 12.5 μL kinase solution containing ALK-wt (1.5 nM, Carna, 08-518), ALK ALK L1196M/G1202R (3 nM, SignalChem, A19-12NG), ROS1-wt (0.6 nM, Carna, 08-163), ROS1-G2032R (0.5 nM, SignalChem, R14-12BG), or TRKA-wt (1 nM, BPS Bio, 40280) kinase domains in buffer (50 nM HEPES pH 7.5, 0.01% Brij-35, 2% glycerol, 0.4 mg/mL BSA, 0.5 mM EGTA, and 10 mM MgCl2) was added and mixed thoroughly. The plate was sealed and read by SpectraMax Paradigm at λ=485 nm every 2 minutes for 120 minutes at 30° C. Initial rates of reaction (v) were calculated from the change in fluorescence intensity over time during the initial, linear portion of the reaction. Finally, apparent inhibitory constants (Ki^app) were determined from regression of v and I (inhibitor concentration) to Morrison Equation (E=enzyme concentration): […]

[2] = target: T2, ALK L1196M/G1202R (Homo sapiens, UniProt Q9UM73, G1202R/L1196M); test: Biochemical kinase assay, ALK L1196M/G1202R kinase domain; details: apparent inhibitory constant, Morrison equation; ATP 2 mM in substrate solution; read-out: ALK-L1196M-G1202R Ki^app
T2 construct: purchased SignalChem A19-12NG
Procedure: as §1

[3] = target: T3, ROS1-wt (Homo sapiens, UniProt P08922); test: Biochemical kinase assay, ROS1-wt kinase domain; details: apparent inhibitory constant, Morrison equation; ATP 2 mM in substrate solution; read-out: ROS1-wt Ki^app
T3 construct: purchased Carna 08-163
Procedure: as §1, with “Then, a 12.5 μL kinase solution containing ALK-wt (1.5 nM, Carna, 08-518), ALK ALK L1196M/G1202R (3 nM, SignalChem, A19-12NG), ROS1-wt (0.6 nM, Carna, 08-163), ROS1-G2032R (0.5 nM, SignalChem, R14-12BG), or TRKA-wt (1 nM, BPS Bio, 40280) kinase domains in buffer (50 nM HEPES pH 7.5, 0.01% Brij-35, 2% glycerol, 0.4 mg/mL BSA, 0.5 mM EGTA, and 10 mM MgCl2) was added and mixed thoroughly.” left out

[4] = target: T4, ROS1-G2032R (Homo sapiens, UniProt P08922, G2032R); test: Biochemical kinase assay, ROS1-G2032R kinase domain; details: apparent inhibitory constant, Morrison equation; ATP 2 mM in substrate solution; read-out: ROS1-G2032R Ki^app
T4 construct: purchased SignalChem R14-12BG
Procedure: as §1, with “Then, a 12.5 μL kinase solution containing ALK-wt (1.5 nM, Carna, 08-518), ALK ALK L1196M/G1202R (3 nM, SignalChem, A19-12NG), ROS1-wt (0.6 nM, Carna, 08-163), ROS1-G2032R (0.5 nM, SignalChem, R14-12BG), or TRKA-wt (1 nM, BPS Bio, 40280) kinase domains in buffer (50 nM HEPES pH 7.5, 0.01% Brij-35, 2% glycerol, 0.4 mg/mL BSA, 0.5 mM EGTA, and 10 mM MgCl2) was added and mixed thoroughly.” left out

[5] = target: T5, TRKA-wt (Homo sapiens, UniProt P04629); test: Biochemical kinase assay, TRKA-wt kinase domain; details: apparent inhibitory constant, Morrison equation; ATP 2 mM in substrate solution; read-out: TRKA-wt Ki^app
T5 construct: or TRKA-wt (1 nM, BPS Bio, 40280) kinase domains in buffer; purchased BPS Bio 40280
Procedure: as §1

[6] = target: T6, Ba/F3 cells CD74-ROS1 wild-type (wt) (Homo sapiens, UniProt P08922); test: Ba/F3 cell proliferation assay, CD74-ROS1 wild-type; format: cell-based; details: 72 hours, CellTiter-Glo
T6 construct: fusion of the C-terminus of ROS1 with the N-terminus of various partner proteins; host or cells: Ba/F3 (RIKEN), retroviral pMSCV-puro; the other entry of the earlier key: CD74 (P04233, HLA class II histocompatibility antigen gamma chain)
Method in brief: (§2)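 Viability read by CellTiter-Glo luminescence after 72 h exposure to 3-fold serial compound dilutions, four-parameter logistic fitting giving IC50.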

[7] = target: T7, Ba/F3 cells CD74-ROS1 G2032R (Homo sapiens, UniProt P08922, G2032R); test: Ba/F3 cell proliferation assay, CD74-ROS1 G2032R; format: cell-based; details: 72 hours, CellTiter-Glo
T7 construct: fusion of the C-terminus of ROS1 with the N-terminus of various partner proteins; host or cells: Ba/F3 (RIKEN), retroviral pMSCV-puro; the other entry of the earlier key: CD74 (P04233, HLA class II histocompatibility antigen gamma chain)
Method in brief: as §2

[8] = target: T8, Ba/F3 cells EML4-ALK wt (variant 1) (Homo sapiens, UniProt Q9UM73); test: Ba/F3 cell proliferation assay, EML4-ALK wt (variant 1); format: cell-based; details: 72 hours, CellTiter-Glo
T8 construct: echinoderm microtubule-associated protein-like 4 (EML4) gene and the ALK tyrosine kinase domain; host or cells: Ba/F3 (RIKEN), retroviral pMSCV-puro; the other entry of the earlier key: EML4 (Q9HC35, Echinoderm microtubule-associated protein-like 4)
Method in brief: (§3)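 Ba/F3 lines stably expressing the fusion (retroviral pMSCV-puro, selected by IL-3 withdrawal plus puromycin 0.8 μg/mL, monoclonal) were seeded at 1,000 cells/well, dosed next day with 3-fold compound dilutions, and incubated 72 hours. CellTiter-Glo luminescence gave percent inhibition; IC50 by four-parameter logistic fit.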

[9] = target: T9, Ba/F3 cells EML4-ALK L1196M/G1202R (variant 1) (Homo sapiens, UniProt Q9UM73, G1202R/L1196M); test: Ba/F3 cell proliferation assay, EML4-ALK L1196M/G1202R (variant 1); format: cell-based; details: 72 hours, CellTiter-Glo
T9 construct: echinoderm microtubule-associated protein-like 4 (EML4) gene and the ALK tyrosine kinase domain; host or cells: Ba/F3 (RIKEN), retroviral pMSCV-puro; the other entry of the earlier key: EML4 (Q9HC35, Echinoderm microtubule-associated protein-like 4)
Method in brief: as §3

[10] = target: T10, Ba/F3 cells TPM3-TRKA (Homo sapiens, UniProt P04629); test: Ba/F3 cell proliferation assay, TPM3-TRKA; format: cell-based; details: 72 hours, CellTiter-Glo, read-out: TPM3-NTRK1-wt IC50
T10 construct: host or cells: Ba/F3 (RIKEN), retroviral pMSCV-puro; the other entry of the earlier key: TPM3 (P06753, Tropomyosin alpha-3 chain)
Method in brief: as §3

[11] = tested on: TPM3-NTRK1-wt IC50 / primary target IC50 (e.g. CD74-ROS1-wt); test: TRKA selectivity in Ba/F3 cells (TRKA potency divided by primary target potency); format: cell-based; details: for TPM3-NTRK1-wt/CD74-ROS1-G2032R selectivity ratio: TRKA potency / CD74-ROS1-G2032R potency; for TPM3-NTRK1-wt/CD74-ROS1-wt selectivity ratio: TRKA potency / CD74-ROS1-wt potency; for TPM3-NTRK1-wt/EML4-ALK-L1196M-G1202R selectivity ratio: TRKA potency / EML4-ALK-L1196M-G1202R potency; for TPM3-NTRK1-wt/EML4-ALK-wt selectivity ratio: TRKA potency / EML4-ALK-wt potency
Procedure: TRKA selectivity was calculated by dividing a compound's TRKA potency by its primary target potency (e.g. TPM3-NTRK1-wt IC50/CD74-ROS1-wt IC50). Compound selectivity can be interpreted by binning ratio values: bin A for very high selectivity, ratio >30-fold; bin B for high selectivity, ratio >10-fold; bin C for moderate selectivity, ratio ≥1; and bin D for low selectivity, ratio <1. […] (nd=not determined).

T10 sequence (P04629 510-796 limits assumed): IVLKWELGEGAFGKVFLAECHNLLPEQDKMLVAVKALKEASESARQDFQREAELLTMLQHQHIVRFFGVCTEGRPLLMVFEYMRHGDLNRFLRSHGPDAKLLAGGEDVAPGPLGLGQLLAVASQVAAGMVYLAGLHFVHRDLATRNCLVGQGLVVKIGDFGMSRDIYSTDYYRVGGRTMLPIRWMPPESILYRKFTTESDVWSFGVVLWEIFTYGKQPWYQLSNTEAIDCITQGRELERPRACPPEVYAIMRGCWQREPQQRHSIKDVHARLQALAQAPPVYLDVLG
T1 sequence (Q9UM73 1116-1392 limits assumed): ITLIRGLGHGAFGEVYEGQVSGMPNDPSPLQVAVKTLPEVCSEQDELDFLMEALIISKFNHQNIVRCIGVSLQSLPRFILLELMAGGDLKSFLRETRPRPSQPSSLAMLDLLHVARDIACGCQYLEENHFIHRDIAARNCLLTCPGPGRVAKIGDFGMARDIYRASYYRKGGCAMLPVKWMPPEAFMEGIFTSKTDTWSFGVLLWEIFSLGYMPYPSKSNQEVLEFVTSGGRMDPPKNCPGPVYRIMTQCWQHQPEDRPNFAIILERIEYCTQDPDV
T5 sequence (P04629 510-781 limits assumed): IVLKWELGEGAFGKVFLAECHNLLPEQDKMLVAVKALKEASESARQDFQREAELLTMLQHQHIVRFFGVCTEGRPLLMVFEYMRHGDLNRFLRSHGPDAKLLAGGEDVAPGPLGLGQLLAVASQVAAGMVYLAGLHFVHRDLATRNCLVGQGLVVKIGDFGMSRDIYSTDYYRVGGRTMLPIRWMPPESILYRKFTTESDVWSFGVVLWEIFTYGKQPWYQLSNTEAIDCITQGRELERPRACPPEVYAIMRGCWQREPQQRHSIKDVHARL
T9 sequence (Q9UM73 with tags, fused parts or gaps L1196M/G1202R): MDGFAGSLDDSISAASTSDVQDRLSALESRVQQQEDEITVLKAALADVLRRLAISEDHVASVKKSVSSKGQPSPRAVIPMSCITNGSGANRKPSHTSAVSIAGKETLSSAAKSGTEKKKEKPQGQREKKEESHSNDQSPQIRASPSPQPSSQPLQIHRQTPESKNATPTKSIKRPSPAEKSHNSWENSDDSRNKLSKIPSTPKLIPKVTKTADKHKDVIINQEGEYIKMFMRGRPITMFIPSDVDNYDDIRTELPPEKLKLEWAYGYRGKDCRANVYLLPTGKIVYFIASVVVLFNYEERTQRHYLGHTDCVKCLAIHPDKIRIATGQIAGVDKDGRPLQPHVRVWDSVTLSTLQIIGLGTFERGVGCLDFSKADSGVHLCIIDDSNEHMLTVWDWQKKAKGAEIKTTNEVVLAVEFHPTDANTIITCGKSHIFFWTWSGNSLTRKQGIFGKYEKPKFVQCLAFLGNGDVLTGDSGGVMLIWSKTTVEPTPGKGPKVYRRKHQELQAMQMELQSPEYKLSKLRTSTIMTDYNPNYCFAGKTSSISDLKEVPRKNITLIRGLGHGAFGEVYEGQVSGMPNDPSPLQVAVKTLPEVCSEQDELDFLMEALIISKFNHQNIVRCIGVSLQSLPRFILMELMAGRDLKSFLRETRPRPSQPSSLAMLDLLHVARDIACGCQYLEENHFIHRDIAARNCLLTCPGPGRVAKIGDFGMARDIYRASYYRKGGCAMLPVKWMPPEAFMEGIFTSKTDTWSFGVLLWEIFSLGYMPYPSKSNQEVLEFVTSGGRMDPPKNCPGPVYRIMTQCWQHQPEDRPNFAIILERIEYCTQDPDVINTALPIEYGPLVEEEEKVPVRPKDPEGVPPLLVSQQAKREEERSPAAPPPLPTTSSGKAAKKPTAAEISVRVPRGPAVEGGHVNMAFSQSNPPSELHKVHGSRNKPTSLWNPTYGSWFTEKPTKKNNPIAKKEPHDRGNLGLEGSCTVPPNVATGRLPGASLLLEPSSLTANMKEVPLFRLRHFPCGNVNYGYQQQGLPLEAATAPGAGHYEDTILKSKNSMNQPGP
T4 sequence (P08922 1945-2222 G2032R limits assumed): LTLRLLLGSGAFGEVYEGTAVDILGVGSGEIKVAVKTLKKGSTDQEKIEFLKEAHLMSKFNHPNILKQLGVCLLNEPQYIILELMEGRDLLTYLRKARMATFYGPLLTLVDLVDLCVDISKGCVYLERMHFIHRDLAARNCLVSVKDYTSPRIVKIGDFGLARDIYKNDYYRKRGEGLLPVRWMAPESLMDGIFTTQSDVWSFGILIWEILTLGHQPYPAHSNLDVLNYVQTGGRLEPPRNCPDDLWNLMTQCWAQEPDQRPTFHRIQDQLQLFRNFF
T7 sequence (P08922 1883-2347 G2032R limits assumed): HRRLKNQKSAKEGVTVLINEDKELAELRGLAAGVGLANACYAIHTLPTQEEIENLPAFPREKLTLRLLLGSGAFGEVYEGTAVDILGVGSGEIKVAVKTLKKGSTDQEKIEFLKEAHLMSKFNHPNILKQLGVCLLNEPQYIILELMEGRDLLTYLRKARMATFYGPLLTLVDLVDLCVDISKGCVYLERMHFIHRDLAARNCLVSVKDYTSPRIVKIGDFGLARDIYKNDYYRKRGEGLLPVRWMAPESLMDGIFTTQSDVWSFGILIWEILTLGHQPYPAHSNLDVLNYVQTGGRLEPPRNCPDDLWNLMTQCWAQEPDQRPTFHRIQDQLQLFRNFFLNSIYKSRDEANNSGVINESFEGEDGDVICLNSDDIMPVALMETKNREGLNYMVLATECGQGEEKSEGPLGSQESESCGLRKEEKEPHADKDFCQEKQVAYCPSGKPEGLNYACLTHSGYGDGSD
T3 sequence (P08922 1945-2222 limits assumed): as the sequence (P08922 1945-2222 G2032R limits assumed) above, with R88G counted along it
T6 sequence (P08922 1883-2347 limits assumed): as the sequence (P08922 1883-2347 G2032R limits assumed) above, with R150G counted along it
T2 sequence (Q9UM73 1116-1392 L1196M/G1202R limits assumed): as the sequence (Q9UM73 1116-1392 limits assumed) above, with L81M, G87R counted along it
T8 sequence (Q9UM73 with tags, fused parts or gaps): as the sequence (Q9UM73 with tags, fused parts or gaps L1196M/G1202R) above, with M635L, R641G counted along it

Row | Structure (SMILES) | Ki [1] [nM] | Ki [2] [nM] | Ki [3] [nM] | Ki [4] [nM] | Ki [5] [nM] | IC50 [6] [nM] | IC50 [7] [nM] | IC50 [8] [nM] | IC50 [9] [nM] | IC50 [10] [nM] | TPM3-NTRK1-wt/CD74-ROS1-G2032R selectivity ratio [11] | TPM3-NTRK1-wt/CD74-ROS1-wt selectivity ratio [11] | TPM3-NTRK1-wt/EML4-ALK-L1196M-G1202R selectivity ratio [11] | TPM3-NTRK1-wt/EML4-ALK-wt selectivity ratio [11]
1 | C[C@H]1Oc2cc(cnc2N)-c2c(c(Cl)nn2CC2CC2)Cc2nn(C)nc2-c2ccc(F)cc21 [Example 85, (19R)-5-chloro-3-(cyclopropylmethyl)-16-fluoro-10,19-dimethyl-20-oxa-3,4,9,10,11,23-hexaazapentacyclo [19.3.1.0^2,^6.0^8,^12.0^13,^18]pentacosa-1(24),2(6),4,8,11,13,15,17,21(25),22-decaen-22-amine] | < 50 | < 50 | < 50 | < 50 | > 500 | 0.1 to 50 | 0.1 to 50 | 0.1 to 50 | 0.1 to 50 | > 500 | A (bin A for very high selectivity, ratio >30-fold) | A (bin A for very high selectivity, ratio >30-fold) | A (bin A for very high selectivity, ratio >30-fold) | A (bin A for very high selectivity, ratio >30-fold)
2 | C[C@H]1Oc2cc(cnc2N)-c2c(cnn2C2CCC2)Cc2ncnn2-c2ccc(F)cc21 [Example 41, (19R)-3-cyclobutyl-16-fluoro-19-methyl-20-oxa-3,4,9,11,12,23-hexaazapentacyclo[19.3.1.0^2,^6.0^8,^12.0^13,^18]pentacosa-1(24),2(6),4,8,10,13,15,17,21(25),22-decaen-22-amine] | < 50 | < 50 | < 50 | < 50 | > 500 | 0.1 to 50 | 0.1 to 50 | 0.1 to 50 | 0.1 to 50 | > 500 | A (bin A for very high selectivity, ratio >30-fold) | A (bin A for very high selectivity, ratio >30-fold) | B (bin B for high selectivity, ratio >10-fold) | A (bin A for very high selectivity, ratio >30-fold)
3 | Cc1nc2c(o1)-c1ccc(F)cc1[C@@H](C)Oc1cc(cnc1N)-c1c(cnn1CC1CC1)C2 [Example 76, (19R)-3-(cyclopropylmethyl)-16-fluoro-10,19-dimethyl-11,20-dioxa-3,4,9,23-tetraazapentacyclo[19.3.1,0^2,^6.0^8,^12.0^13,^18]pentacosa-1(24),2(6),4,8(12),9,13,15,17,21(25),22-decaen-22-amine] | < 50 | < 50 | < 50 | < 50 | > 500 | 0.1 to 50 | 0.1 to 50 | 0.1 to 50 | 0.1 to 50 | > 500 | A (bin A for very high selectivity, ratio >30-fold) | A (bin A for very high selectivity, ratio >30-fold) | A (bin A for very high selectivity, ratio >30-fold) | A (bin A for very high selectivity, ratio >30-fold)
4 | C[C@H]1Oc2cc(cnc2N)-c2c(cnn2C2CCC2)Cc2nn(C)nc2-c2ccc(F)cc21 [Example 13, (19R)-3-cyclobutyl-16-fluoro-10,19-dimethyl-20-oxa-3,4,9,10,11,23-hexaazapentacyclo[19.3.1.0^2,^6.0^8,^12.0^13,^18]pentacosa-1(24),2(6),4,8,11,13,15,17,21(25),22-decaen-22-amine] | < 50 | < 50 | < 50 | < 50 | > 500 | 0.1 to 50 | 0.1 to 50 | 0.1 to 50 | 0.1 to 50 | > 500 | A (bin A for very high selectivity, ratio >30-fold) | A (bin A for very high selectivity, ratio >30-fold) | A (bin A for very high selectivity, ratio >30-fold) | A (bin A for very high selectivity, ratio >30-fold)
5 | C[C@H]1Oc2cc(cnc2N)-c2c(CC3CC3)nn(C)c2Cn2ncnc2-c2ccc(F)cc21 [Example 99, (19R)-3-(cyclopropylmethyl)-16-fluoro-5,19-dimethyl-20-oxa-4,5,8,9,11,23-hexaazapentacyclo[19.3.1.0^2,^6.0^8,^12.0^13,^18]pentacosa-1(24),2(6),3,9,11,13,15.17,21(25),22-decaen-22-amine] | < 50 | < 50 | < 50 | < 50 | > 500 | 0.1 to 50 | 0.1 to 50 | 0.1 to 50 | 50 to 500 | > 500 | A (bin A for very high selectivity, ratio >30-fold) | A (bin A for very high selectivity, ratio >30-fold) | B (bin B for high selectivity, ratio >10-fold) | A (bin A for very high selectivity, ratio >30-fold)

Reference: patent US12054498B2, “Heteroaromatic macrocyclic ether chemotherapeutic agents” (Nuvalent, Inc., priority 2020, dated 2024)
